Paper PMC2365101, “Anti-Inflammatory Activity of (Polyphenolic)-Sulfonates and Their Sodium Salts in Rodents” (Metal-Based Drugs, 1998)

System: TNFα release from IC-21 macrophages
Test: TNFα release from IC-21 macrophages induced by LPS (L929 bioassay)
Format: cell-based, mouse
Conditions: for TNFα release, Percent of LPS Control: 18 hours exposure to LPS, N=6
Source text: Few reports in the literature indicate interaction at these receptor sites other than by peptides or antibodies. […] Blocking these receptors is desirable because the entire inflammation cascade of events is triggered by the early release of TNFa and IL-1. […] Radioisotopes were obtained from New England Nuclear [Dupont, Boston, MA] and substrates and co- factors were obtained from Sigma Chemical Co. [St. Louis, MO]. […] Cell lines were obtained from American Type Culture Collection [Rockville, MD]. In Vivo Tests Anti-inflammatory screen in mice: Male CF male mice weighing 28-32g obtained from Jackson Lab. [Bar Harbor, […]] were used to screen agents at 8 or 16 mg/kg intraperitoneal [I.P.] x 2 administered 3 hr and 30 min prior to administering the irritant, according to Winter's protocol. Evaluation of the induced edema was made by injecting 2% carrageenan in 0.9% saline into the plantar region of the foot. The opposite foot injected with 0.9% isotonic saline was used as a base line. […] Salmonella abortus equi [Lot # 69F4003] […] Drugs from 2 to 16 mg/kg, I.P. were administered 2 hr prior and 2 hr post-injection of the LPS and then subsequently for every 24 hr for the length ofthe animals' lives. Deaths were recorded every 12 hr and continued for 96 hr. […] In vitro TNFa andIL-1 Measurements and Cellular Regulation IC-21 mouse macrophages were maintained in RPMI-1640 + 10% FCS + P/S. After the cells had grown to confluency, E. coli LPS at 10 Ixg/ml was added to the medium. Agents were incubated at 12.5 to 100 µM final concentration for 18 hr. The medium (100 btl) was collected for TNFCt determinations. Interleukin-1 [IL-1] release was determined using P388D1 cells which were maintained in RPMI-1640 + 10% FCS + P/S. The L929 bioassay was used to quantitate the TNF and the IL-1 levels. The L929 mouse fibroblasts were grown in DMEM + 10% FCS + P/S to confluency in 96 well plates and incubated with 100 tl ofmedium from […] or P388D cells after 18 hr. The cells were stained with 0.2% crystal violet in 20% MeOH and read at 580 nm using a Molecular Devices scanner (SOFT-max program). High Affinity Binding to Receptors on L929-106 Cells Two laCi of 125I-TNFct (human recombinant, 30 mCi/tg New England Nuclear) or 125I-IL-1 (70-120[.t Ci/lxg,New England Nuclear) was added to confluency L929 cells for 90 min or 5 hr, respectively with 25, 50 and 100 tM of the test compounds 12]. The cells were washed repeatedly with isotonic saline, pH.7.2 and aliquots counted. Prostaglandin cylcooxygenase activity Mouse J774AI macrophages maintained in Dulbecco's modified Eagle's medium + 15% FCS + P/S. Cells (5 x 106) were incubated with agents (5 to 100 ].tM final concentration) and 3H-arachidonic acid (100 Ci/mol) for 60 min at 37C in a CO2 incubator. The reaction was terminated with 2N HCI, the mixture extracted 2 X with ether, and the organic layer evaporated.

| SMILES | TNFα release, Percent of LPS Control (5 μM) | TNFα release, Percent of LPS Control (12.5 μM) | TNFα release, Percent of LPS Control (25 μM) | TNFα release, Percent of LPS Control (50 μM) | reduction of TNFα release (50 μM, 18 hr) [%] |
| --- | --- | --- | --- | --- | --- |
| COc1c2cc(S(=O)(=O)[O-])cc1Cc1cc(S(=O)(=O)[O-])cc(c1OC)Cc1cc(S(=O)(=O)[O-])cc(c1OC)Cc1cc(S(=O)(=O)[O-])cc(c1OC)Cc1cc(S(=O)(=O)[O-])cc(c1OC)Cc1cc(S(=O)(=O)[O-])cc(c1OC)C2.[Na+].[Na+].[Na+].[Na+].[Na+].[Na+] [Compound 6] | 118 + 7% of LPS Control | 102 + 5% of LPS Control | 86 + 6% of LPS Control | 62 + 4% of LPS Control | 38 |
| CC(=O)Oc1c2cc(S(=O)(=O)[O-])cc1Cc1cc(S(=O)(=O)[O-])cc(c1OC(C)=O)Cc1cc(S(=O)(=O)[O-])cc(c1OC(C)=O)Cc1cc(S(=O)(=O)[O-])cc(c1OC(C)=O)Cc1cc(S(=O)(=O)[O-])cc(c1OC(C)=O)Cc1cc(S(=O)(=O)[O-])cc(c1OC(C)=O)Cc1cc(S(=O)(=O)[O-])cc(c1OC(C)=O)Cc1cc(S(=O)(=O)[O-])cc(c1OC(C)=O)C2.[Na+].[Na+].[Na+].[Na+].[Na+].[Na+].[Na+].[Na+] [Compound 8] | 73 + 4% of LPS Control | 66 + 4% of LPS Control | 44 + 3% of LPS Control | 53 +4% of LPS Control |  |
